Test results published in patent publication US20220096510A1, “METHOD AND PHARMACOLOGICAL COMPOSITION FOR THE PREVENTION OF RECURRENT INFECTIONS CAUSED BY CLOSTRIDIUM DIFFICILE” (UNIVERSIDAD ANDRÉS BELLO, priority 2018, published 2022).

Key:
[1] = tested on: Caco-2 cells; assay: Cell viability by the trypan blue and MTT methods, Caco-2; format: cell-based; settings: results not shown
[2] = tested on: T84 cells; assay: Cell viability by the trypan blue and MTT methods, T84; format: cell-based; settings: results not shown
[3] = tested on: C. difficile R20291 spores in Caco-2 cells; assay: Internalized (taurocholate- and ethanol-resistant) spores in infected Caco-2 cells by the seeding method; format: cell-based; settings: 30 μM nystatin before and during infection; then 0.1% taurocholate 1 h and 70% ethanol
[4] = tested on: C. difficile strain R20291; assay: Murine R-CDI model, intraperitoneal nystatin before and during CDI with oral vancomycin (Example 4)
[5] = tested on: C. difficile; settings: used after vancomycin; cited from earlier work
[6] = tested on: C. difficile; settings: cited from earlier work; for patients who presented late R-CDI: after 28 days
[7] = tested on: C. difficile spores; format: in vivo, C57BL/6 mice; settings: day 2; nystatin 8,500 IU/kg oral from day -1
[8] = tested on: C. difficile
From the text: Mice were infected and dosed with an oral solution comprising a combination of nystatin and vancomycin starting from day 3 after infection (time of manifestation of the clinical symptoms).
In this sense, we studied the effect of a formulation comprising nystatin together with vancomycin administered from day 3.

[9] = tested on: C. difficile toxin TcdB; settings: patients with CDI; cited from earlier work
[10] = tested on: C. difficile; settings: 10 mM; cited from earlier work

SMILES: C[C@@H]1[C@H](O)[C@@H](C)/C=C/C=C/CC/C=C/C=C/C=C/C=C/C(O[C@H]2O[C@H](C)[C@@H](O)[C@H](N)[C@@H]2O)CC2O[C@](O)(CC(O)C(O)CCC(O)CC(O)CC(O)CC(=O)O[C@H]1C)CC(O)C2C(=O)O (stereo partly shown) [nystatin]
- cell viability [1]: no differences
- cell viability [2]: no differences
- amount of CFU counted (ethanol-resistant spores) [3]: significant decrease
- weight increase on day 11 in respect of day 0 ([4]; nystatin 12,000 IU/kg I.P. with vancomycin 50 mg/kg oral): 6%
- weight variation versus control group ([4]; nystatin 12,000 IU/kg I.P. with vancomycin 50 mg/kg oral, versus vancomycin alone): no significant weight variations

SMILES: CO[C@H]1/C=C/O[C@@]2(C)Oc3c(C)c(O)c4c(O)c(c5c(nc6cc(C)ccn65)c4c3C2=O)NC(=O)/C(C)=C\C=C\[C@H](C)[C@H](O)[C@@H](C)[C@@H](O)[C@@H](C)[C@H](OC(C)=O)[C@@H]1C [rifaximin]
- efficiency rate [5]: 64%

SMILES: CCc1c(Cl)c(O)c(Cl)c(O)c1C(=O)O[C@H]1[C@H](O)[C@H](OC)[C@H](OC/C2=C\C=C\C[C@H](O)/C(C)=C/[C@H](CC)[C@@H](O[C@@H]3OC(C)(C)[C@@H](OC(=O)C(C)C)[C@H](O)[C@@H]3O)/C(C)=C/C(C)=C/C[C@@H]([C@@H](C)O)OC2=O)O[C@@H]1C [fidaxomicin]
- patients who presented late R-CDI [6]: 19.7%
- patients who presented early recurrences [6]: 8%

SMILES: CN[C@H](CC(C)C)C(=O)N[C@H]1C(=O)N[C@@H](CC(N)=O)C(=O)N[C@H]2C(=O)N[C@H]3C(=O)N[C@H](C(=O)N[C@H](C(=O)O)c4cc(O)cc(O)c4-c4cc3ccc4O)[C@H](O)c3ccc(c(Cl)c3)Oc3cc2cc(c3O[C@@H]2O[C@H](CO)[C@@H](O)[C@H](O)[C@H]2O[C@H]2C[C@](C)(N)[C@H](O)[C@H](C)O2)Oc2ccc(cc2Cl)[C@H]1O [vancomycin]
- levels of spores in stools [7]: 3.8 logarithmic units
- weight loss on day 11, the day of recurrence ([8]; after discontinuing treatment on day 8, nystatin 4,250 and 17,000 IU/kg): suffered a weight loss
- mice presenting recurrence ([8]; vancomycin 50 mg/kg alone, 5 days from day 3): 75%
- patients who presented late R-CDI [6]: 35.5%
- patients who presented early recurrences [6]: 27%
- R-CDI rates [9]: 27%
- mice presenting recurrence ([4]; 5 days after finishing vancomycin 50 mg/kg, 7 days): 100%

SMILES: N[C@@H](CS)C(=O)O [cysteine]
- toxin production in vitro [10]: reduces toxin production
